Measurements: US9303035B2, “Substituted pyrazino[1′,2′:1,2]pyrrolo[3,4-d]pyrimidines, pyrimido[4′,5′:3,4]pyrrolo[2,1-c][1,4]oxazines and pyrimido[4′,5′:3,4]pyrrolo[1,2-d][1,4]oxazepines for inhibiting the CFTR channel” (Novartis AG, priority 2012, dated 2016)

Molecular target: CFTR (WT-CFTR channels stably expressed in CHO cells) (Homo sapiens (Human), UniProt P13569)
Test: IonWorks Quattro CFTR inhibitor assay (whole-cell population patch clamp, forskolin-activated current)
Format: cell-based
Conditions: inward current (−100 mV); CHO cells stably expressing WT-CFTR; CFTR activated with 10 μM forskolin; 10 min compound incubation
Description: CFTR activity can be quantified by electrophysiology methods, using the whole-cell configuration of the patch clamp technique (Hamill O, Marty A, Neher E, Sakmann B and Sigworth F. ‘Improved patch-clamp techniques for high resolution current recording from cells and cell-free membrane patches.’ Pflugers Archive 1981 391: 85-100). This assay directly measures the currents associated with chloride flow through CFTR channels whilst either maintaining or adjusting the transmembrane voltage. This assay can use either single glass micropipettes or parallel planar arrays to measure CFTR activity from native or recombinant cell systems. Currents measured using parallel planar arrays can be quantified using an appropriately equipped instrument such as the IonWorks Quattro (Molecular Devices Corporation, Sunnyvale, Calif.). The Quattro system can measure CFTR currents from either a single cell per recording well (HT configuration) or alternatively from a population of 64 cells per well (Population Patch Clamp PPC) (Finkel A, Wittel A, Yang N, Handran S, Hughes J, Costantin J. ‘Population patch clamp improves data consistency and success rates in the measurement of ionic currents.’ J Biomol Screen. 2006 August; 11(5):488-96).
Chinese hamster ovary (CHO) cells stably expressing WT-CFTR channels were used for the IonWorks Quattro experiments. Cells were maintained at 37° C. in 5% v/v CO2 at 100% humidity in MEM alpha medium supplemented with 10% (v/v) FCS, 100 U/mL Penicillin/Streptomycin, and 100 μg/L methotrexate. For experiments, cells were grown in 225 cm^2 tissue culture flasks until almost confluent. Cells were removed from the flask using trypsin-EDTA and resuspended in extracellular recording solution for immediate experimentation.
Cells, at a density of 1.5-2 million per mL, were placed on the Quattro system, added to the planar patch plate and seals allowed to establish for 5-10 mins. After assessing seal resistances (typically >50 MΩ), whole-cell access was obtained by perforation with 100 μg/mL amphotericin B. Baseline currents were measured by a pre-compound scan obtained by application of a voltage ramp from −100 to +100 mV. CFTR was activated by the addition of 10 μM forskolin to each of the 384 wells of the patch plate. After 5 min incubation the post-compound 1 currents were measured, again by application of a voltage ramp from −100 to +100 mV. Test compounds, diluted from 10 mM stocks in DMSO in extracellular solution were then added to the patch plate and were incubated for a further 10 min. The post-compound 2 currents were measured by the application of the same voltage ramp from −100 to +100 mV. The inhibition of CFTR was determined from the difference in current between the forskolin addition (post-compound 1) and the test compound (post-compound 2). This was determined at both −100 mV and +100 mV which represents the inward and outward current respectively.
Extracellular solution (ECS): 145 mM NaCl, 4 mM CsCl, 5 mM D-glucose, 10 mM TES, 1 mM CaCl2, 1 mM MgCl2, pH 7.4 NaOH
Intracellular solution (ICS): 113 mM L-Aspartic acid, 113 mM CsOH, 27 mM CsCl, 1 mM NaCl, 1 mM MgCl2, 1 mM EGTA, 10 mM TES. pH 7.2 with CsOH. Filter sterilized before use.

Chain of CFTR (WT-CFTR channels stably expressed in CHO cells) (P13569 whole entry): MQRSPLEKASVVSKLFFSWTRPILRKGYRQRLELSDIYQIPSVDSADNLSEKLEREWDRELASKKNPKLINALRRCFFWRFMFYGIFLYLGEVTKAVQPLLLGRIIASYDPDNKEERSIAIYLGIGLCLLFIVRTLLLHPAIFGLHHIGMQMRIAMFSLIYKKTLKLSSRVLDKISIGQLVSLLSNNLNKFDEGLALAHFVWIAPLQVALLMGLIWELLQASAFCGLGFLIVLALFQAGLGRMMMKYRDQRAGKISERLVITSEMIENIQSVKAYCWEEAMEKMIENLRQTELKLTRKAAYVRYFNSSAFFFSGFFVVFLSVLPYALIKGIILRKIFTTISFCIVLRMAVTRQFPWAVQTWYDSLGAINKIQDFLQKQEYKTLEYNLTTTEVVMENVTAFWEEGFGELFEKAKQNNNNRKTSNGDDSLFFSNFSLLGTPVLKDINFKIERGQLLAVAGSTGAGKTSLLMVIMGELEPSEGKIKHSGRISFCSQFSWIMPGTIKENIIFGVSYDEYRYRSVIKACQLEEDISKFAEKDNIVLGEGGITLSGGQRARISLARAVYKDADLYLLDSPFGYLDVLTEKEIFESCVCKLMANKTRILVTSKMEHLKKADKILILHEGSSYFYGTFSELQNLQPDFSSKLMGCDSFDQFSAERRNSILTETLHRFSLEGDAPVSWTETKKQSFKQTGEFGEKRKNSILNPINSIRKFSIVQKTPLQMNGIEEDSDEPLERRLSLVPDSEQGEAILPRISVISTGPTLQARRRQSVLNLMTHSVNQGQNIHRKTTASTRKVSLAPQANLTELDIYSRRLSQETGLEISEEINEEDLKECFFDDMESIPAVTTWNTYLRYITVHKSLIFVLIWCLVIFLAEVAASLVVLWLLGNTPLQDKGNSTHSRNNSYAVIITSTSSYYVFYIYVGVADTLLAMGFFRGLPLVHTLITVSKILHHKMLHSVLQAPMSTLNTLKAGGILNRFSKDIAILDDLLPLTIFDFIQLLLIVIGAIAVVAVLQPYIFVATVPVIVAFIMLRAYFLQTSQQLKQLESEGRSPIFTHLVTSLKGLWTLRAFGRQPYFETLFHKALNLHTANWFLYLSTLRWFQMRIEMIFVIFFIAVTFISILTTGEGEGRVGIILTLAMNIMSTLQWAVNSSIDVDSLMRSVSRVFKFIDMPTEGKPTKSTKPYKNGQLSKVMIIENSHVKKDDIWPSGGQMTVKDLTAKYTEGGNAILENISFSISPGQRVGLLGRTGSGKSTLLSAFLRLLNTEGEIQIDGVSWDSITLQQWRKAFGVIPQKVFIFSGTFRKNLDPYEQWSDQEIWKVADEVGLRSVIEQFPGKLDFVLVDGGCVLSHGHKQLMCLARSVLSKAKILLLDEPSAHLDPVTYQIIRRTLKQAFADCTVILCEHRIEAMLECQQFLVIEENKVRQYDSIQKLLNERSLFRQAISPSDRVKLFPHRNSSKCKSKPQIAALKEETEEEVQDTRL

Structure (SMILES) | IC50
Cn1c(=O)c2c(-c3ccccc3)n3c(c2n(C)c1=O)C(c1cccc(F)c1F)NCC3 (centres unmarked) [Example 1.14, 10-(2,3-Difluorophenyl)-1,3-dimethyl-5-phenyl-7,8,9,10-tetrahydropyrazino[1′,2′:1,2]pyrrolo[3,4-d]pyrimidine-2,4(1H,3H)-dione] | 11.5 µM
Cn1c(=O)c2c(-c3ccccc3)n3c(c2n(C)c1=O)C(C1CC=CCC1)NCC3 (centres unmarked) [Example 1.17, 10-(Cyclohex-3-en-1-yl)-1,3-dimethyl-5-phenyl-7,8,9,10-tetrahydropyrazino[1′,2′:1,2]pyrrolo[3,4-d]pyrimidine-2,4(1H,3H)-dione] | 18.1 µM
Cn1c(=O)c2c(-c3ccccc3)n3c(c2n(C)c1=O)C(c1ccc(Cl)cc1)NCC3 (centres unmarked) [Example 1.23, 10-(4-Chlorophenyl)-1,3-dimethyl-5-phenyl-7,8,9,10-tetrahydropyrazino[1′,2′:1,2]pyrrolo[3,4-d]pyrimidine-2,4(1H,3H)-dione] | 29.9 µM
Cc1csc(-c2c3c(=O)n(C)c(=O)n(C)c3c3n2CCNC3c2ccc(Cl)o2)n1 (centres unmarked) [Example 1.26, 10-(5-Chlorofuran-2-yl)-1,3-dimethyl-5-(4-methylthiazol-2-yl)-7,8,9,10-tetrahydropyrazino[1′,2′:1,2]pyrrolo[3,4-d]pyrimidine-2,4(1H,3H)-dione] | 1.9 µM
Cn1c(=O)c2c(-c3cccc(Cl)c3)n3c(c2n(C)c1=O)C(c1ccc(Cl)o1)NCC3 (centres unmarked) [Example 3.1, 10-(5-Chlorofuran-2-yl)-5-(3-chlorophenyl)-1,3-dimethyl-7,8,9,10-tetrahydropyrazino[1′,2′:1,2]pyrrolo[3,4-d]pyrimidine-2,4(1H,3H)-dione] | 0.7 µM
Cc1csc(C2NCCn3c(-c4cccc(Cl)c4)c4c(=O)n(C)c(=O)n(C)c4c32)n1 (centres unmarked) [Example 3.2, 5-(3-Chlorophenyl)-1,3-dimethyl-10-(4-methylthiazol-2-yl)-7,8,9,10-tetrahydropyrazino[1′,2′:1,2]pyrrolo[3,4-d]pyrimidine-2,4(1H,3H)-dione] | 0.64 µM
Cc1cc(C)cc(-c2c3c(=O)n(C)c(=O)n(C)c3c3n2CCNC3c2ccc(Cl)o2)c1 (centres unmarked) [Example 3.6, 10-(5-Chlorofuran-2-yl)-5-(3,5-dimethylphenyl)-1,3-dimethyl-7,8,9,10-tetrahydropyrazino[1′,2′:1,2]pyrrolo[3,4-d]pyrimidine-2,4(1H,3H)-dione] | 8.26 µM
Cc1csc(C2OC[C@@H](C)n3c(-c4ccccc4)c4c(=O)n(C)c(=O)n(C)c4c32)n1 (stereo partly drawn) [Example 5.1, (7R)-1,3,7-trimethyl-10-(4-methylthiazol-2-yl)-5-phenyl-7,8-dihydro-1H-pyrimido[4′,5′:3,4]pyrrolo[2,1-c][1,4]oxazine-2,4(3H,10H)-dione] | 3.24 µM
Cn1c(=O)c2c(-c3cccc(F)c3)n3c(c2n(C)c1=O)[C@H](c1ccc(Cl)o1)O[C@@H](CO)C3 [Example 6, (8R,10R)-10-(5-Chlorofuran-2-yl)-5-(3-fluorophenyl)-8-(hydroxymethyl)-1,3-dimethyl-7,8-dihydro-1H-pyrimido[4′,5′:3,4]pyrrolo[2,1-c][1,4]oxazine-2,4(3H,10H)-dione] | 0.05 µM
Cn1c(=O)c2c(-c3ccccc3)n3c(c2n(C)c1=O)[C@H](c1ccc(Cl)o1)N[C@@H](CO)C3 [Example 11a, 10-(5-Chlorofuran-2-yl)-8-(hydroxymethyl)-1,3-dimethyl-5-phenyl-7,8,9,10-tetrahydropyrazino[1′,2′:1,2]pyrrolo[3,4-d]pyrimidine-2,4(1H,3H)-dione] | 0.31 µM
Cc1csc([C@H]2O[C@@H](C)Cn3c(-c4ccccc4)c4c(=O)n(C)c(=O)n(C)c4c32)n1 [Example 12, (8S)-1,3,8-trimethyl-10-(4-methylthiazol-2-yl)-5-phenyl-7,8-dihydro-1H-pyrimido[4′,5′:3,4]pyrrolo[2,1-c][1,4]oxazine-2,4(3H,10H)-dione] | 0.6 µM
Cn1c(=O)c2c(-c3ccccc3)n3c(c2n(C)c1=O)C(c1ccc(Cl)o1)OC(C)(C)C3 (centres unmarked) [Example 12.5, 10-(5-Chlorofuran-2-yl)-1,3,8,8-tetramethyl-5-phenyl-7,8-dihydro-1H-pyrimido[4′,5′:3,4]pyrrolo[2,1-c][1,4]oxazine-2,4(3H,10H)-dione] | 0.62 µM
Cn1c(=O)c2c(-c3ccccc3)n3c(c2n(C)c1=O)[C@H](c1nc(Cl)cs1)COCC3 [Example 13, 11-(4-chlorothiazol-2-yl)-1,3-dimethyl-5-phenyl-7,8,10,11-tetrahydropyrimido[4′,5′:3,4]pyrrolo[1,2-d][1,4]oxazepine-2,4(1H,3H)-dione] | 3.53 µM
Cn1c(=O)c2c(-c3cccc(C#N)c3)n3c(c2n(C)c1=O)[C@H](c1nc(Cl)cs1)CO[C@H](CO)C3 [Example 14, 3-(11-(4-chlorothiazol-2-yl)-8-(hydroxymethyl)-1,3-dimethyl-2,4-dioxo-1,2,3,4,7,8,10,11-octahydropyrimido[4′,5′:3,4]pyrrolo[1,2-d][1,4]oxazepin-5-yl)benzonitrile] | 1.96 µM
